Results: patent publication US20110105324A1, “Herbicidal Compounds Based on N-Azinyl-N-Phenylsulfonylureas” (BAYER CROPSCIENCE AG, priority 2008, published 2011)

Columns and labels:
[1] = tested on: Pharbitis purpurea; test: Pre-emergence herbicidal activity, greenhouse pot test; type: in vivo, Pharbitis/Ipomoea purpurea; details: 80 g/ha, scored visually after approx. 3 weeks, 100% = plants have died, 0% = like control
Text: (§1) Seeds of monocotyledonous or dicotyledonous weed plants or crop plants are placed in sandy loam in wood fiber pots and covered with soil. The compounds according to the invention, which are formulated as wettable powders (WP), are then applied to the surface of the soil cover in the form of an aqueous suspension or emulsion with a water application rate of 600 l/ha (converted), with addition of 0.2% wetting agent.
(§2) After the treatment, the pots are placed in a greenhouse and maintained under good growth conditions for the test plants. After approximately 3 weeks, the activity of the preparations is scored visually in comparison with untreated controls (herbicidal activity in percent (%): 100% activity=the plants have died, 0% activity=like control plants).

[2] = tested on: Viola tricolor; test: Post-emergence herbicidal activity, greenhouse pot test; type: in vivo; details: one-leaf stage, 80 g/ha, scored visually after approx. 3 weeks, 100% = plants have died, 0% = like control
Procedure: (§3) Seeds of monocotyledonous or dicotyledonous weed plants or crop plants are placed in sandy loam in wood fiber pots, covered with soil and grown in a greenhouse under good growth conditions. 2 to 3 weeks after sowing, the test plants are treated in the one-leaf stage. The compounds according to the invention, which are formulated as wettable powders (WP), are then sprayed onto the green plant parts in the form of an aqueous suspension or emulsion with a water application rate of 600 l/ha (converted) with addition of 0.2% of wetting agent. After the test plants have been left to stand in the greenhouse for approximately 3 weeks under optimal growth conditions, the activity of the preparation is scored visually in comparison with untreated controls (herbicidal activity in percent (%): 100% activity=the plants have died, 0% activity=like control plants).

[3] = tested on: Echinochloa crus-galli; test: as above; type: in vivo; details: one-leaf stage, 80 g/ha, scored visually after approx. 3 weeks, 100% = plants have died, 0% = like control
Procedure: as §3

[4] = tested on: Cyperus esculentus; test: as above; type: in vivo; details: one-leaf stage, 80 g/ha, scored visually after approx. 3 weeks, 100% = plants have died, 0% = like control
Procedure: as §3

[5] = tested on: Matricaria inodora; test: as above; type: in vivo; details: one-leaf stage, 80 g/ha, scored visually after approx. 3 weeks, 100% = plants have died, 0% = like control
Procedure: as §3

[6] = tested on: Polygonum convolvulus; test: as above; type: in vivo; details: one-leaf stage, 80 g/ha, scored visually after approx. 3 weeks, 100% = plants have died, 0% = like control
Procedure: as §3

[7] = tested on: Abutilon theophrasti; test: as above; type: in vivo; details: one-leaf stage, 80 g/ha, scored visually after approx. 3 weeks, 100% = plants have died, 0% = like control
Procedure: as §3

[8] = tested on: Alopecurus myosuroides; test: as above; type: in vivo; details: one-leaf stage, 80 g/ha, scored visually after approx. 3 weeks, 100% = plants have died, 0% = like control
Procedure: as §3

[9] = tested on: Pharbitis purpurea; test: as above; type: in vivo, Pharbitis (Ipomoea) purpurea; details: one-leaf stage, 80 g/ha, scored visually after approx. 3 weeks, 100% = plants have died, 0% = like control
Procedure: as §3

[10] = tested on: Veronica persica; test: Pre-emergence herbicidal activity, greenhouse pot test; type: in vivo; details: 80 g/ha, scored visually after approx. 3 weeks, 100% = plants have died, 0% = like control
Text: as §1, §2

[11] = tested on: Stellaria media; test: as above; type: in vivo; details: 80 g/ha, scored visually after approx. 3 weeks, 100% = plants have died, 0% = like control
Text: as §1, §2

[12] = tested on: Lolium multiflorum; test: as above; type: in vivo; details: 80 g/ha, scored visually after approx. 3 weeks, 100% = plants have died, 0% = like control
Text: as §1, §2

[13] = tested on: Viola tricolor; test: as above; type: in vivo; details: 80 g/ha, scored visually after approx. 3 weeks, 100% = plants have died, 0% = like control
Text: as §1, §2

[14] = tested on: Cyperus esculentus; test: as above; type: in vivo; details: 80 g/ha, scored visually after approx. 3 weeks, 100% = plants have died, 0% = like control
Text: as §1, §2

[15] = tested on: Matricaria inodora; test: as above; type: in vivo; details: 80 g/ha, scored visually after approx. 3 weeks, 100% = plants have died, 0% = like control
Text: as §1, §2

[16] = tested on: Alopecurus myosuroides; test: as above; type: in vivo; details: 80 g/ha, scored visually after approx. 3 weeks, 100% = plants have died, 0% = like control
Text: as §1, §2

[17] = tested on: Amaranthus retroflexus; test: Post-emergence herbicidal activity, greenhouse pot test; type: in vivo; details: one-leaf stage, 80 g/ha, scored visually after approx. 3 weeks, 100% = plants have died, 0% = like control
Procedure: as §3

Compound | herbicidal activity PHBPU [1] [%] | herbicidal activity VIOTR [2] [%] | herbicidal activity ECHCG [3] [%] | herbicidal activity CYPES [4] [%] | herbicidal activity MATIN [5] [%] | herbicidal activity POLCO [6] [%] | herbicidal activity ABUTH [7] [%] | herbicidal activity ALOMY [8] [%] | herbicidal activity PHBPU [9] [%] | herbicidal activity VERPE [10] [%] | herbicidal activity STEME [11] [%] | herbicidal activity LOLMU [12] [%] | herbicidal activity VIOTR [13] [%] | herbicidal activity CYPES [14] [%] | herbicidal activity MATIN [15] [%] | herbicidal activity ALOMY [16] [%] | herbicidal activity AMARE [17] [%]
COc1cc(C)nc(NC(=O)NS(=O)(=O)c2ccccc2OC(C)C(F)(F)F)n1 (stereo not shown) [Compound I-2] | 80 | 90 | 80 | 80 | 80 | 90 | 90 | 90 | 80 | 80 | 80 | 90 | 80 | 100 | 80 | 90 | –
COc1cc(OC)nc(NC(=O)NS(=O)(=O)c2ccccc2OC(C)C(F)(F)F)n1 (stereo not shown) [Compound I-4] | 80 | 90 | 80 | 80 | 90 | 80 | 100 | 90 | 80 | 80 | – | 80 | 80 | 90 | 80 | 80 | –
COc1nc(NC(=O)NS(=O)(=O)c2ccccc2OC(C)C(F)(F)F)nc(OC)n1 (stereo not shown) [Compound I-6] | 80 | 90 | – | – | 90 | 90 | 90 | – | 90 | 80 | 80 | – | 80 | 100 | 80 | 80 | 80
Cc1cc(C)nc(NC(=O)NS(=O)(=O)c2ccccc2OC(C)C(F)(F)F)n1 (stereo not shown) [Compound I-1, N-[(4,6-Dimethylpyrimidin-2-yl)carbamoyl]-2-(2,2,2-trifluoro-1-methylethoxy)-benzenesulfonamide] | – | – | 80 | 80 | 80 | 90 | 90 | 90 | – | – | – | 80 | – | – | – | 80 | 80
COc1nc(C)nc(NC(=O)NS(=O)(=O)c2ccccc2OC(C)C(F)(F)F)n1 (stereo not shown) [Compound I-5, N-[(4-Methoxy-6-methyl-1,3,5-triazin-2-yl)carbamoyl]-2-(2,2,2-trifluoro-1-methylethoxy)benzenesulfonamide] | 80 | 90 | – | – | 90 | 90 | 90 | 90 | 90 | 90 | 80 | – | 80 | – | 80 | 90 | 100
COc1cc(Cl)nc(NC(=O)NS(=O)(=O)c2ccccc2OC(C)C(F)(F)F)n1 (stereo not shown) [Compound I-3] | 80 | 80 | – | 80 | 90 | 80 | 90 | 80 | 90 | 80 | – | 80 | – | 100 | 80 | 80 | –
